Data as given in ChEMBL document CHEMBL3351235, “β-amino-alcohol tethered 4-aminoquinoline-isatin conjugates: synthesis and antimalarial evaluation” (Eur J Med Chem, 2014).

How the values were obtained:
Plasmodium falciparum = test: Antimalarial activity against chloroquine-resistant ring stage Plasmodium falciparum W2 assessed as parasitemia after 48 hrs by flow cytometry; assay type: functional, organism-based; details: W2, 48 h
[1] = Cytotoxicity against human HCT116 cells at 0.2 uM after 48 hrs by MTT assay relative to untreated control; details: hct-116, 48 h
[2] = Cytotoxicity against human HCT116 cells at 2 uM after 48 hrs by MTT assay relative to untreated control; details: hct-116, 48 h
[3] = Cytotoxicity against human HCT116 cells at 20 uM after 48 hrs by MTT assay relative to untreated control; details: hct-116, 48 h

Structure (SMILES) | IC50 (Plasmodium falciparum) | INH [1] | INH [2] | INH [3]
O=C1C(=O)N(CC(CO)NCCNc2ccnc3cc(Cl)ccc23)c2ccc(Cl)cc21 (centres undefined) | 11.7 nM | 0% | -11% | 88%
O=C1C(=O)N(CC(CO)NCCNc2ccnc3cc(Cl)ccc23)c2ccc(F)cc21 (centres undefined) | 488 nM |  |  | 
O=C1C(=O)N(CC(CO)NCCNc2ccnc3cc(Cl)ccc23)c2ccccc21 (centres undefined) | 24.9 nM | 0% | 2% | 91%
O=C1C(=O)N(CC(CO)NCCCNc2ccnc3cc(Cl)ccc23)c2ccccc21 (centres undefined) | 75.5 nM | 2% | -12% | 85%
O=C1C(=O)N(CC(CO)NCCCNc2ccnc3cc(Cl)ccc23)c2ccc(Cl)cc21 (centres undefined) | 13.5 nM | 0% | 2% | 46%
Cc1ccc2c(c1)C(=O)C(=O)N2CC(CO)NCCCNc1ccnc2cc(Cl)ccc12 (centres undefined) | 302 nM |  |  | 
O=C1C(=O)N(CC(CO)NCCCNc2ccnc3cc(Cl)ccc23)c2ccc(F)cc21 (centres undefined) | 72.3 nM | -2% | 12% | 66%
O=C1C(=O)N(CC(CO)NCCCCNc2ccnc3cc(Cl)ccc23)c2ccccc21 (centres undefined) | 48.7 nM | 0% | -5% | 37%
O=C1C(=O)N(CC(CO)NCCCCNc2ccnc3cc(Cl)ccc23)c2ccc(Cl)cc21 (centres undefined) | 101 nM |  |  | 
Cc1ccc2c(c1)C(=O)C(=O)N2CC(CO)NCCCCNc1ccnc2cc(Cl)ccc12 (centres undefined) | 58 nM |  |  | 
O=C1C(=O)N(CC(CO)NCCCCNc2ccnc3cc(Cl)ccc23)c2ccc(F)cc21 (centres undefined) | 45.3 nM | -1% | 0% | 83%
O=C1C(=O)N(CC(CO)NCCCCCCNc2ccnc3cc(Cl)ccc23)c2ccccc21 (centres undefined) | 62.9 nM |  |  | 
O=C1C(=O)N(CC(CO)NCCCCCCNc2ccnc3cc(Cl)ccc23)c2ccc(Cl)cc21 (centres undefined) | 49.7 nM |  |  | 
Cc1ccc2c(c1)C(=O)C(=O)N2CC(CO)NCCCCCCNc1ccnc2cc(Cl)ccc12 (centres undefined) | 55.8 nM |  |  | 
O=C1C(=O)N(CC(CO)NCCCCCCNc2ccnc3cc(Cl)ccc23)c2ccc(F)cc21 (centres undefined) | 59.6 nM |  |  | 
O=C1C(=O)N(CC(CO)N2CCN(c3ccnc4cc(Cl)ccc34)CC2)c2ccccc21 (centres undefined) | 216 nM |  |  | 
O=C1C(=O)N(CC(CO)N2CCN(c3ccnc4cc(Cl)ccc34)CC2)c2ccc(Cl)cc21 (centres undefined) | 1960 nM |  |  | 
Cc1ccc2c(c1)C(=O)C(=O)N2CC(CO)N1CCN(c2ccnc3cc(Cl)ccc23)CC1 (centres undefined) | 1220 nM |  |  | 
O=C1C(=O)N(CC(CO)N2CCN(c3ccnc4cc(Cl)ccc34)CC2)c2ccc(F)cc21 (centres undefined) | 1850 nM |  |  | 
C[C@@H]1CC[C@H]2[C@@H](C)C(=O)O[C@@H]3O[C@@]4(C)CC[C@@H]1[C@]32OO4 [ARTEMISININ] | 4.37 nM |  |  | 
COc1cccc2c1C(=O)c1c(O)c3c(c(O)c1C2=O)C[C@@](O)(C(=O)CO)C[C@@H]3O[C@H]1C[C@H](N)[C@H](O)[C@H](C)O1 [DOXORUBICIN] |  | 84% | 79% | 79%
